Test results reported in patent publication US12600725B2 (Memorial Sloan-Kettering Cancer Center, priority 2013, dated 2026).
“Also recorded” adds a separate entry of the source.

How the values were obtained:
[1] = system: HER2 at the plasma membrane of SKBr3 cells; experiment: Immunofluorescence of HER2 architecture at the plasma membrane; assay type: cell-based
Experimental: We next investigated the biological significance of the unique association of HER^2 with Grp94 at the plasma membrane of SKBr3 cells. Because the Grp94 inhibitors described here target the ATP-binding pocket of Grp94, they affect Grp94 chaperone activity. Therefore we hypothesized that Grp94 may act on HER^2 at the plasma membrane to stabilize the protein and to regulate its function.
Immunofluorescence. Cells were seeded and grown onto culture slides (BD Falcon) for 24 hrs. After washing with cold PBS, cells were fixed by treating at 4° C. for 20 min with 4% paraformaldehyde in PBS, permeabilized with 0.1% Triton X-100 in PBS containing 10% FBS for 10 min, and blocked with 2% BSA for 1 hr. After washing for four times with PBS, primary antibodies were added onto the chambers and cell were incubated overnight at 4° C., washed again with PBS followed by incubation with the secondary antibody for 1 hr at room temperature. Cell were washed and then mounted and observed under microscope (Leica Upright Confocal SP5). The primary antibodies used in the assay are against: HER^2 (Zymed, 28004), Grp94 (Stressgen, SPA-850), Hsp70 (Stressgen, SPA-810), LAMP1-FITC (Abcam, ab25406), EEA1 (Abcam, ab70521), 58K Golgi-FITC (Abcam, ab27043) and Calnexin (BD, 610523).

[2] = system: IGF1R and TGFbeta expressing ovarian cancer cell lines; experiment: Apoptosis in ovarian cancer cell lines; assay type: cell-based
Experimental: (§1) Cell cycle and apoptosis assessment. Cell cycle and apoptosis were assessed by flow cytometry after single staining with propidium iodide (PI, BD Pharmingen) or double staining with AnnexinV-FITC (BD Pharmingen) and 7AAD (BD Pharmingen), respectively. Specifically, for cell cycle analysis, cells were washed twice with cold PBS and fixed in 70% ethanol overnight at 4° C. Fixed cells were collected at 1800 rpm for 10 min and stained with PBS containing PI and DNase-free RNase A (Sigma-Aldrich) for 1 h at room temperature in the dark. DNA content was measured by BD LSRII flow cytometer and cell further analyzed using program of cell cycle analysis in FloJo (Ashland, OR). The chicken erythrocyte nuclei singlets (CEN, Biosure) were used as the reference. For apoptosis assessment, live cells were collected, washed twice with cold PBS, resuspended in Binding Buffer and stained with AnnexinV-FITC and 7AAD for 15 min at room temperature in the dark. Signals from FL1 and FL3 channels were collected by MACSQuant analyzer and further analyzed using FloJo. Early apoptosis was defined as AnnexinV+/7AAD−, and late apoptosis was observed as AnnexinV+/7AAD+.

OE19 cells = experiment: Apoptosis assessment (Annexin V / 7AAD); assay type: cell-based
Text: (§2) Annexin V Apoptosis with 7-AAD has been specifically designed for the identification of apoptotic and necrotic cells. Annexin V (or Annexin A5) is a member of the annexin family of intracellular proteins that binds to phosphatidylserine (PS) in a calcium-dependent manner. PS is normally only found on the intracellular leaflet of the plasma membrane in healthy cells, but during early apoptosis, membrane asymmetry is lost and PS translocates to the external leaflet. Fluorochrome-labeled Annexin V can then be used to specifically target and identify apoptotic cells. Annexin V binding alone cannot differentiate between apoptotic and necrotic cells. To help distinguish between the necrotic and apoptotic cells 7-amino-actinomycin D (7-AAD) is used. Early apoptotic cells will exclude 7-AAD, while late stage apoptotic cells will stain positively, due to the passage of these dyes into the nucleus where they bind to DNA. 7-AAD (7-amino-actinomycin D) has a high DNA binding constant and is efficiently excluded by intact cells. It is useful for DNA analysis and dead cell discrimination during flow cytometric analysis. When excited by 488 laser light, 7-AAD fluorescence is detected in the far red range of the spectrum (650 nm long-pass filter).
as §1

NCI-N87 cells = experiment: Apoptosis assessment (Annexin V / 7AAD); assay type: cell-based
Text: as §2, §1

PANC-1 cells = experiment: Apoptosis assessment (Annexin V / 7AAD); assay type: cell-based
Text: as §2, §1

Capan-2 cells = experiment: Cell viability assessment (CellTiter-Glo); assay type: cell-based
[3] = system: EGFR and its downstream signaling in HMEC cells; experiment: Western blot of EGFR and downstream signaling in normal cells; assay type: cell-based, human; conditions: 24 h
Experimental: For comparison, the agent was also tested in a normal cell line, human mammary epithelial cells (HMECs). […] Without wishing to be bound by any particular theory, it is believed that a Grp94 selective inhibitor may therefore have a better therapeutic index than a direct RTK modulator (i.e. TKI or antibody) because it will act on the RTK only in conditions of oncogenic overexpression (see EGFR in TNBC cell lines vs HMEC). […] Approximately half of cases of triple-negative breast cancer (TNBC) and inflammatory breast cancer (IBC) overexpress EGFR, nonetheless clinical trials testing EGFR inhibitors reported lack of or limited benefit (Masuda H. et al. Breast Cancer Res Treat. 2012 November; 136(2):331-45). Without wishing to be bound by any particular theory, it is believed that such ineffectiveness is due to a crosstalk between EGFR and c-Met or other RTKs, because strategies that knocked down EGFR either by siRNA or by mixtures of antibodies that induces robust degradation of EGFR, led to reduced viability of TNBC cells (Mueller et al., Breast Cancer Res. 2012 Jul. 12; 14(4):R^104; Ferraro et al., Proc Natl Acad Sci USA. 2013 Jan. 29; 110(5):1815-20. PMID:23319610). […] Protein concentrations were determined using BCA kit (Pierce) according to the manufacturer's instructions. […]

C2C12 cells = experiment: Viability of C2C12 cells visualized by light microscopy; assay type: cell-based, mouse; conditions: 24 h

**Q.** With `CC(C)NCCCn1c(Sc2cc(Cl)cc(Cl)c2)nc2c(N)ncnc21` [PU-WS13] as the molecule, how does the “effect on HER2 architecture at the plasma membrane” value [1] read?
**A.** The value was “disruption of the circular architecture of HER^2 at the plasma membrane”.

**Q.** What about the induction of apoptosis [2] of the same molecule?
**A.** The induction of apoptosis was “induces apoptosis”.

**Q.** And the “cells exhibiting markers of early- and late-stage apoptosis” value (OE19 cells)?
**A.** Its value is “substantial increase”.

**Q.** And the “cells exhibiting markers of early- and late-stage apoptosis” value (NCI-N87 cells)?
**A.** The value was “substantial increase”.

**Q.** What about the induction of apoptosis (PANC-1 cells) of the same molecule?
**A.** The induction of apoptosis was “substantial increase; also recorded: more potent at killing cells through apoptosis”.

**Q.** And the “effect on cell growth” value (Capan-2 cells)?
**A.** Its value is “no effect”.

**Q.** What about the “effect on EGFR and its downstream signaling in normal cells” value [3] of the same molecule?
**A.** Its value is “does not affect EGFR and its downstream signaling”.

**Q.** What about the “toxicity to C2C12 cells” value (C2C12 cells) of the same molecule?
**A.** Its value is “not toxic”.
